In ChEMBL document CHEMBL1144748, “N-D-aldopentofuranosyl-N'-[p-(isoamyloxy)phenyl]-thiourea derivatives: potential anti-TB therapeutic agents” (2008):
In brackets after ≈: the same amount, converted by molar mass.

What follows are compounds tested on Mycobacterium tuberculosis (assay: Antimycobacterial activity against Mycobacterium tuberculosis H37Rv by microplate alamar blue assay).
Type: functional
`CC(C)CCOc1ccc(NC(=S)NC2O[C@H](CO)[C@H](O)[C@H]2O)cc1` (stereo not given in full) showed an MIC of 6.25 µg/mL (≈ 16.9 µM).
With `CC(C)CCOc1ccc(NC(=S)NC2O[C@H](CO)[C@@H](O)[C@@H]2O)cc1` (stereo not given in full) the MIC was 1.56 µg/mL (≈ 4.21 µM).
Work on `CC(C)CCOc1ccc(NC(=S)NC2O[C@H](CO)[C@@H](O)[C@H]2O)cc1` (stereo not given in full) yielded an MIC of 3.12 µg/mL (≈ 8.44 µM).
`CC(C)CCOc1ccc(NC(=S)NC2O[C@H](CO)[C@H](O)[C@@H]2O)cc1` (stereo not given in full) gave an MIC of 50 µg/mL (≈ 135 µM).
`CC(C)CCOc1ccc(NC(=S)Nc2ccc(OCCC(C)C)cc2)cc1` [TIOCARLIDE] was tested, and the MIC was 2.5 µg/mL (≈ 6.24 µM).
